A word on the IC50: it is the midpoint of a concentration-inhibition curve.

The values that follow come from patent US12060349B2, “Glucosylceramide synthase inhibitors” (Genzyme Corporation, priority 2012, dated 2024).

The target in assay [1] is T1, glucosylceramide synthase (Homo sapiens, UniProt Q16739).
T1 construct: Microsomes were isolated from A375 human melanoma cells; endogenous in cells; host or cells: A375 human melanoma cells (microsomal fraction, 100,000 g pellet)
T1 sequence (Q16739 1-394): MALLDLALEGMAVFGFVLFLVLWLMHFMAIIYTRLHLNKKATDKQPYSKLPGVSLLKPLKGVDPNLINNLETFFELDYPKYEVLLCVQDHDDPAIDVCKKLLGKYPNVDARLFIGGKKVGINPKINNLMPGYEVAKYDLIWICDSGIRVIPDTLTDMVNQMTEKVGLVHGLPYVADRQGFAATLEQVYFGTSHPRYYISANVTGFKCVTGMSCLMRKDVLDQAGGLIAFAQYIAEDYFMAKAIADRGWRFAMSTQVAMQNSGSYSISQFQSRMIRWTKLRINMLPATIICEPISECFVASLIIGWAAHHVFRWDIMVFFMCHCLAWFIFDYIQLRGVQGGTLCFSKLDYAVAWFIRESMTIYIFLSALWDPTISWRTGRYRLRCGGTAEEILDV
Put plainly: microsomal assay measuring conversion of ceramide to glucosylceramide by HPLC (GCS IC50). Type of assay: biochemical. The settings on record: concentration causing 50% inhibition of glucosylceramide synthase activity. The method, boiled down: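 IC50 is the compound concentration halving glucosylceramide synthase activity. Activity was measured in microsomes, with HPLC quantifying glucosylceramide formed from ceramide.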

A further assay relates to C32 human melanoma cells. Put plainly: cell viability in the C32 cell-based assay (Viability, C32 IC50). The note with it: concentration causing 50% cell death, values greater than 10 represent a lack of cell death. In outline:
(§1)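 Cell death was scored within the cell-based GM3 experiment for each line. The viability value is the concentration producing 50% death, and numbers exceeding 10 signify no cytotoxicity.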

A further assay concerns B16 mouse melanoma cells. The experiment in a line: cell viability in the B16 cell-based assay (Viability, B16 IC50). The method, boiled down:
as §1

The subject of assay [2] is GM3 expression on the cell surface, B16 mouse melanoma cells. The experiment in a line: cell based phenotypic assay, cell surface GM3 by antibody mediated immunofluorescence, B16 (GM3 B16 IC50). The settings on record: 50% inhibition of GM3 expression on the cell surface. The method, boiled down: (§2)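 Both lines undergo the phenotypic GM3 assay, and viability is recorded from that same cell-based run.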

Assay [3] deals with GM3 expression on the cell surface, C32 human melanoma cells. Put plainly: cell based phenotypic assay, cell surface GM3 by antibody mediated immunofluorescence, C32 (GM3 C32 IC50). The note with it: 50% inhibition of GM3 expression on the cell surface. The method, boiled down:
as §2

[4] abbreviates: Homo sapiens, C32, C32 cells, read-out: Viability, C32 IC50.
[5] abbreviates: Mus musculus, B16, B16 cells, concentration causing 50% cell death, values greater than 10 represent a lack of cell death, read-out: Viability, B16 IC50.
The mark [6] stands for this setting: Mus musculus, B16 mouse melanoma cells, read-out: GM3 B16 IC50.
[7] abbreviates: Homo sapiens, C32 human melanoma cells, read-out: GM3 C32 IC50.

Where two headings read alike, the source gives them in different places.

Turning to `CC(C)(NC(=O)OC1CCN2CCC1CC2)c1ccc(-c2ccc(C(=O)N3CCC(F)(F)CC3)cc2)cc1` (stereo not drawn) [Example 271, 1-Azabicyclo[3.2.2]nonan-4-yl 2-(4′-(4,4-difluoropiperidine-1-carbonyl)biphenyl-4-yl)propan-2-ylcarbamate], the IC50 in assay [1] was 9.42 nM; in the assay on C32 human melanoma cells (setting [4]) it was 316 nM; in the assay with B16 mouse melanoma cells (setting [5]), no less than 10000 nM; in assay [2] (setting [6]), 60.7 nM; in assay [3] (setting [7]) it was 2.64 nM.

For `CCC1(NC(=O)NC(C)(C)c2ccc(-c3ccc(C(=O)N4CC(F)(F)C4)cc3)cc2)CN2CCC1CC2` (stereo not drawn) [Example 275, 1-(2-(4′-(3,3-Difluoroazetidine-1-carbonyl)biphenyl-4-yl)propan-2-yl)-3-(3-ethylquinuclidin-3-yl)urea], the half-maximal inhibitory concentration (IC50) was 75.6 nM in assay [1]; 1000 nM in the assay with C32 human melanoma cells (setting [4]); no less than 10000 nM in the assay with B16 mouse melanoma cells (setting [5]); 55.4 nM in assay [2] (setting [6]); 2.92 nM in assay [3] (setting [7]).

As to `CC(C)(NC(=O)NC1(C)CN2CCC1CC2)c1ccc(-c2ccc(N3CCOCC3)cc2)cc1` (stereo not drawn) [Example 232, 1-(3-Methylquinuclidin-3-yl)-3-(2-(4′-morpholino-[1,1′-biphenyl]-4-yl)propan-2-yl)urea], the IC50 in assay [1] stood at 30.9 nM; in the assay on C32 human melanoma cells (setting [4]), 1000 nM; in the assay on B16 mouse melanoma cells (setting [5]), 1000 nM; in assay [2] (setting [6]) it was 64.2 nM; in assay [3] (setting [7]) it was 7.17 nM.

Consider `CC(C)(C)CCS(=O)(=O)c1ccc(-c2ccc(C(C)(C)NC(=O)OC3CN4CCC3CC4)cc2)cc1` (stereo not drawn) [Example 245, Quinuclidin-3-yl (2-(4′-((3,3-dimethylbutyl)sulfonyl)-[1,1′-biphenyl]-4-yl)propan-2-yl)carbamate], for which the IC50 in assay [1] amounted to 1.85 nM; with C32 human melanoma cells (Homo sapiens, C32, read-out: Viability, C32 IC50, C32 cells), 316 nM; with B16 mouse melanoma cells (Mus musculus, B16, read-out: Viability, B16 IC50), 6740 nM; in assay [2] (Mus musculus, read-out: GM3 B16 IC50, B16 mouse melanoma cells), 66.3 nM; in assay [3] (Homo sapiens, read-out: GM3 C32 IC50, C32 human melanoma cells), 0.716 nM.

Regarding `COCCOCc1ccc(-c2ccnc(N3CCC(C)(C(=O)NC4(C)CN5CCC4CC5)CC3)n2)cc1` (stereo not drawn) [Example 98, 1-(4-(4-((2-Methoxyethoxy)methyl)phenyl)pyrimidin-2-yl)-4-methyl-N-(3-methylquinuclidin-3-yl)piperidine-4-carboxamide], the 50% inhibitory concentration (IC50) in assay [1] worked out at 76.9 nM; in the assay on C32 human melanoma cells (setting [4]) it was 1000 nM; in the assay on B16 mouse melanoma cells (setting [5]) it was 8190 nM; in assay [2] (setting [6]), 1910 nM; in assay [3] (setting [7]), 8.13 nM.

As for `CC1(COc2ccc(-c3ccc(C(C)(C)NC(=O)OC4CCN5CCC4CC5)cc3)cc2)COC1` (stereo not drawn) [Example 192, 1-Azabicyclo[3.2.2]nonan-4-yl (2-(4′-((3-methyloxetan-3-yl)methoxy)-[1,1′-biphenyl]-4-yl)propan-2-yl)carbamate], the 50% inhibitory concentration (IC50) in assay [1] stood at 5.69 nM; in the assay with C32 human melanoma cells (setting [4]) it was 1000 nM; in the assay on B16 mouse melanoma cells (setting [5]) it was 5840 nM; in assay [2] (setting [6]) it was 81.6 nM; in assay [3] (setting [7]), 1.86 nM.

As for “Quinuclidin-3-yl (2-(4′-((2-methoxyethoxy)methyl)-[1,1′-biphenyl]-3-yl)propan-2-yl)carbamate [Example 203]”, the concentration for half-maximal inhibition (IC50) in assay [1] is 29.6 nM; in the assay on C32 human melanoma cells (C32 cells, read-out: Viability, C32 IC50), 1780 nM; in the assay with B16 mouse melanoma cells (B16 cells, concentration causing 50% cell death, values greater than 10 represent a lack of cell death, read-out: Viability, B16 IC50), no less than 10000 nM; in assay [2] (B16 mouse melanoma cells, read-out: GM3 B16 IC50), 96.3 nM; in assay [3] (C32 human melanoma cells, read-out: GM3 C32 IC50) it was 6.53 nM.

`COC1(C(=O)NC2(C)CCN3CCC2CC3)CCN(c2nccc(-c3ccc(OCCF)cc3)n2)CC1` (stereo not drawn) [Example 103, 1-(4-(4-(2-Fluoroethoxy)phenyl)pyrimidin-2-yl)-4-methoxy-N-(4-methyl-1-azabicyclo[3.2.2]nonan-4-yl)piperidine-4-carboxamide]: the half-inhibitory concentration (IC50) in assay [1] was 3.65 nM; with C32 human melanoma cells (setting [4]), 316 nM; with B16 mouse melanoma cells (setting [5]) it was 3110 nM; in assay [2] (setting [6]), 73.8 nM; in assay [3] (setting [7]), 0.29 nM.

`CC(C)(NC(=O)NC1(C)CCN2CCC1CC2)c1ccc(-c2ccc(C(=O)N3CCOCC3)cc2)cc1` (stereo not drawn) [Example 268, 1-(4-Methyl-1-azabicyclo[3.2.2]nonan-4-yl)-3-(2-(4′-(morpholine-4-carbonyl)biphenyl-4-yl)propan-2-yl)urea]: the concentration for half-maximal inhibition (IC50) in assay [1] was 166 nM; in the assay on C32 human melanoma cells (setting [4]) it was 1000 nM; in the assay on B16 mouse melanoma cells (setting [5]), no less than 10000 nM; in assay [2] (setting [6]) it was 648 nM; in assay [3] (setting [7]), 31.5 nM.
